According to ChEMBL document CHEMBL1667723, “Biotransformation of turmerones by Aspergillus niger” (J Nat Prod, 2011):

What was measured:
[1] = biological target: T1, Acetylcholinesterase (Homo sapiens, UniProt P22303); assay: Inhibition of human erythrocytes acetylcholinesterase after 15 mins at 250 uM relative to control
[2] = biological target: T1, Acetylcholinesterase; assay: Inhibition of human erythrocytes acetylcholinesterase after 15 mins

T1 sequence (P22303 whole entry): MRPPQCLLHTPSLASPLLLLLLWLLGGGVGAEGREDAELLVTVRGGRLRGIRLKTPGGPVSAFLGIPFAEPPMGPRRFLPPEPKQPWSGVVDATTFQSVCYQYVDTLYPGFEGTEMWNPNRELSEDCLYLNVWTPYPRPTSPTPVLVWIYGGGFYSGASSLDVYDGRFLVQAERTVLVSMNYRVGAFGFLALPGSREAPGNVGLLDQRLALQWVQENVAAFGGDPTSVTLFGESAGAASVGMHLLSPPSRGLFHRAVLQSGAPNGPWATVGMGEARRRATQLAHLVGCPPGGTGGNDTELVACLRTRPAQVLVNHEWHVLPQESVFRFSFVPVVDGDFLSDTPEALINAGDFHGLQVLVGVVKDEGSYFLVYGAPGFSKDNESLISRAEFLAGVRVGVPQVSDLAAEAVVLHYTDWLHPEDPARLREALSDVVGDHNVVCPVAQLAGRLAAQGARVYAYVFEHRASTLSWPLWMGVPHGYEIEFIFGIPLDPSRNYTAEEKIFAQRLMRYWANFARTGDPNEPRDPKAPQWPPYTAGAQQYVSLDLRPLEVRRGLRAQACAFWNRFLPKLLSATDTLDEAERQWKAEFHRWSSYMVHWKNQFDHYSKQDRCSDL

SMILES | inhibition [1] [%] | IC50 [2] [µM]
C/C(=C\C(=O)C[C@](C)(O)c1ccc(C(=O)O)cc1)CO | 34.3 | 
C/C(=C\C(=O)C[C@H](C)c1ccc(C(=O)O)cc1)CO | 31 | 
CC(C)=CC(=O)C[C@H](C)c1ccc(C)cc1 |  | 191
CC(C)=CC(=O)C[C@](C)(O)c1ccc(C(=O)O)cc1 | 41.9 | 
CC(C)(O)CC(=O)CC(C)(O)c1ccc(C(=O)O)cc1 (single isomer, unassigned; (+)) | 37.6 | 
Cc1ccc([C@@H](C)CC(=O)CC(C)C)cc1 |  | 81.5
Cc1coc(C[C@](C)(O)c2ccc(C(=O)O)cc2)c1 | 33.6 | 
